Like-named read-outs stand apart in the source and are kept apart here.
Tests used:
Format in all cases: binding, human
MYCN G4 DNA [1] = experiment: Surface plasmon resonance (SPR) with immobilized biotinylated MYCN G4 DNA; conditions: for positive binding in SPR (SNR>3): single concentration 100 μM compound
Procedure: Surface plasmon resonance (SPR) analysis. The SPR binding assays were performed with a BIAcore 3000 (GE Healthcare) instrument. A CM5 SPR biochip was loaded into the system and primed with running buffer (10 mM Tris, pH7.0, 100 mM KCl, 0.005% Tween 20, 5% DMSO) with a flow rate of 5 μL/min. Then both Flow Cell (Fc) 1 and 2 were activated by EDC/NHS (0.4 M/0.1 M) aqueous solution for 15 min, followed with an injection of streptavidin (SA) solution (0.2 mg/mL in 10 mM sodium acetate buffer, pH4.5) for 30 minutes. After the immobilization amount of SA reached 8,000-10,000 RU, the surface was deactivated by flowing 1 M Ethanolamine aqueous solution (pH 8.5) for 10 min and regenerated with 10 mM NaOH for 2 min to remove the unbound SA. In the meantime, biotinylated MYCN G4 DNA was prepared at 5 μM in the annealing buffer and heated up to 95° C. for 5 min and slowly cooled down. After annealing, a total of 150 μL solution was injected in the Fc 2 of SPR system for 30 min to immobilize DNA onto the chip surface. The small molecule solutions were tested once the baseline was stable.
To detect the binding signal as well as the binding affinity, a higher flowing rate (25 μL/min) was used in both Fc 1 (reference) and Fc 2 (DNA). Each of the compound solution was prepared at 20× designed the concentrations in DMSO, and then diluted into non-DMSO running buffer, resulting in a final concentration of 5% DMSO. Then, a total of 50 μL compound solution was injected in Fc 1-2 flow path for 120 s for association, followed with 200 s running of buffer for dissociation. An injection of 50 μL regeneration buffer (1 M KCl) could be performed between two samples if necessary. The final binding curve was obtained by reference subtraction. To determine the binding affinity (KD), a series of diluted compound solutions were injected and KD was calculated by BIAevaluation 4.0 software (GE Healthcare) using Langmuir 1:1 binding model.
In this example, SPR binding assays were performed to analyze binding activity of representative bivalent compounds of the present disclosure. The compounds of this example included a non-canonical binder component and a G4 stacker component. A BIAcore 3000 (GE Healthcare) instrument was used. A CM5 SPR biochip was used and primed with running buffer (10 mM Tris, pH7.0, 100 mM KCl, 0.005% Tween 20, 5% DMSO). To immobilize the compounds onto the chip surface, the flow rate was set as 5 μL/min. Then the carboxylated dextran on the chip surface was activated by EDC/NHS (0.4 M/0.1 M) aqueous solution for 15 min, followed with an injection of streptavidin (SA) solution (0.2 mg/mL in 10 mM sodium acetate buffer, pH 4.5) for 30 minutes. After the immobilization amount of SA, the surface was quenched by injecting 1 M ethanolamine (EA) aqueous solution (pH 8.5) for 10 min and regenerated with 10 mM NaOH for 2 min to remove the physical adsorption. Furthermore, biotinylated MYCN G4 DNA was prepared at 5 μM in the annealing buffer and heated up to 95° C. for 5 min followed with slowly cooling down to room temperature within 1 h. After annealing, a total of 150 μL solution was injected in the Fc 2 of SPR system for 30 min to immobilize DNA onto the chip surface. The compound solutions were then tested once the baseline was stable.
To detect the binding signal as well as the binding affinity, a higher flowing rate (25 μL/min) was used in both Fc 1 (blank) and Fc 2 (target). Each of the compound solutions was prepared at 20× designed the concentrations in DMSO, and then diluted into non-DMSO running buffer, resulting in a final concentration of 5% DMSO. Then, a total of 50 μL compound solution was injected in Fc 1-2 flow path for 120 s for association, followed with 200 s running of buffer for dissociation. An injection of 50 μL regeneration buffer (1 M KCl) could be performed between two samples if necessary. The final binding curve was obtained by referencing the blank channel (Fc 1). […]

MYCN G4 DNA [2] = experiment: Fluorescence intensity assay (FIA) with 5′Cy5-labeled MYCN G4 DNA; conditions: single concentration 100 μM compound, 5′Cy5-MYCN G4
Procedure: Fluorescence intensity assay. In this disclosure, fluorescence intensity assay (FIA) was used for both validation of hit binding at a single dose and binding affinity determination. For validating hit compounds from SMM screening, 100 μM solution of each compound was prepared in triplicate in a 96 well-plate (Costar, black side clear bottom), resulting in 5% DMSO concentration. 5′Cy5-labeled MYCN G4 DNA was annealed as described above, then added into the well plate resulting in a final concentration of 100 nM. The plate was incubated shaking for 30 min, followed by centrifuging at 500 rpm for 2 minutes. The fluorescence intensity was then measured on a Synergy Mx microplate reader (BioTek) at Ex 649 nm/Em 670 nm. TMPyP4/DMSO were used as positive and negative controls, respectively. In certain examples, compounds were considered binders when a change of >10% change in fluorescence intensity was observed compared to that of negative control (DMSO solution). For binding affinity measurement, small molecule solutions were prepared as serial dilutions in DMSO. Then a final test plate was prepared by adding 5 μL small molecule solutions and 10 μL annealed DNA samples into 85 μL buffer solutions, resulting in the final small molecule concentrations from 0 to 250 μM (5% final DMSO concentration). The fluorescence intensities were normalized, and the binding affinity was calculated by fitting the curve using one-site total model in GraphPad Prism 8.3.1 software. The fluorescence titration using 3′-labeled oligonucleotides was also performed the same way.

[3] = target: MYCN G4 DNA (2-AP at A11); experiment: 2-Aminopurine (2-AP) fluorescence titration, A11-labeled MYCN G4; conditions: 2-AP at A11 of MYCN G4
Procedure: 2-Aminopurine (2-AP) fluorescence titration. Fluorescence titrations based on 2-aminopurine labeling were performed using the protocol reported previously. Briefly, MYCN G4 oligonucleotide with a 2-AP substitution at either A11 or A18 position was annealed by heating the sample to 95° C. for 5 min and cooling down to RT slowly. The oligonucleotide with folded structure was diluted to 10 μM in Tris buffer (10 mM Tris, pH7.0, 100 mM KCl, 0.005% Tween 20) and prepared in a black 96-well plate (Costar) in triplicate as designed. Small molecules were diluted in DMSO to obtain a series of solutions with concentrations ranging from 0.1 to 5 mM, and then diluted by 20 times added into the plate (5% DMSO final concentration). The final concentration of 2-AP DNA was 1 μM in the well plate. To obtain the background fluorescence, small molecule solutions without DNA were also prepared in the same plate. After incubation for 30 min at RT, the plate was briefly centrifuged and scanned in Synergy Mx microplate reader (BioTek) with Ex 310 nm/Em 365 nm. Fluorescence signals were calculated by averaging the intensities in triplicate wells after subtracting the references. Finally, the binding signals were normalized and the KD value was determined by fitting the curve using a nonlinear sigmoidal dose-response model with a variable slope in GraphPad Prism 8.3.1 software.

MYCN hairpin-G4 DNA = experiment: FIA using compound fluorescence (Ex 340/Em 500 nm), titration with unlabeled MYCN G4 DNA; conditions: for Kd: 100 nM compound titrated with folded unlabeled MYCN G4
Procedure: In this study, FIA was used for validating the bindings between certain bivalent and MYCN G4 oligos. To measure the binding affinity, a solution of each compound was prepared in triplicate in a 96 well-plate (Costar, black side clear bottom), resulting in a final concentration of 100 nM (5% final DMSO in the working solution). Unlabeled MYCN G4 DNA was folded based on the above-mentioned annealing method, then added into the well plate resulting in different concentrations by a seral dilution. The plate was incubated at room temperature for 30 min, followed by centrifuging at 500 rpm for 2 minutes. The fluorescence intensity was then quantitatively recorded by a Synergy Mx microplate reader (BioTek) at Ex 340 nm/Em 500 nm. The fluorescence intensities were then normalized, and the binding affinity was calculated by fitting the curve using one-site total model in GraphPad Prism 8.3.1 software.

[4] = MYCN G4, Langmuir 1:1 model, read-out: SPR KD
[5] = MYCN hairpin G4, SPR titration, read-out: KD by SPR

Question: Which results are given for `c1cc(CNCCCN2CCCCCC2)n(-c2nnc(C3CCCCCC3)s2)c1` [Compound 2]?
Answer: positive binding in SPR (SNR>3) (MYCN G4 DNA [1]): hits; positive binding in FIA (>10% quenching) (MYCN G4 DNA [2]): hits

Question: With `CC(C)COCC(O)CN1CCN(c2ccc(NC(=O)c3cccs3)cn2)CC1` (centres unmarked) [Compound 14] as the molecule, how does the “positive binding in FIA (>10% quenching)” value (MYCN G4 DNA [2]) read?
Answer: hits

Question: How did the Kd (MYCN G4 DNA [1]; [4]) turn out when `COc1ccc(-c2noc(-c3ccc(NCCCN4CCN(C)CC4)nn3)n2)cc1` [MY-5, 6-(3-(4-methoxyphenyl)-1,2,4-oxadiazol-5-yl)-N-(3-(4-methylpiperazin-1-yl)propyl)pyridazin-3-amine] was run?
Answer: 1400 ± 200 nM

Question: And the Kd [3]?
Answer: 1000 ± 100 nM

Question: With `COCC(=O)c1nc2ccccc2nc1NCc1cccnc1` [Compound 5] as the molecule, how does the “positive binding in SPR (SNR>3)” value (MYCN G4 DNA [1]) read?
Answer: hits

Question: What about the “positive binding in FIA (>10% quenching)” value (MYCN G4 DNA [2]) of the same molecule?
Answer: hits

Question: What does the source list for `COc1ccc(-c2noc(-c3ccc(NCCCN4CCC(C)CC4)nn3)n2)cc1` [MY-10]?
Answer: Kd (MYCN G4 DNA [1]; [4]): 2200 ± 600 nM; A11 2AP KD [3]: sub-micromolar binders; Kd [3]: 700 ± 200 nM

Question: How did the Kd (MYCN G4 DNA [1]; [4]) turn out when `COc1ccc(-c2noc(-c3ccc(NCCN4CCN(C)CC4)nn3)n2)cc1` [MY-14] was run?
Answer: 3600 ± 1000 nM

Question: And the “A11 2AP KD” value [3]?
Answer: sub-micromolar binders

Question: What about the Kd [3] of the same molecule?
Answer: 900 ± 200 nM

Question: Which results are given for `COc1ccc(-c2noc(-c3ccc(NCCN(C)C)nn3)n2)cc1` [MY-6]?
Answer: Kd (MYCN G4 DNA [1]; [4]): 4900 ± 2600 nM; Kd [3]: 1000 ± 200 nM

Question: For `O=C1C(=O)C(c2ccc3c(c2)CCCC3)C1NC1CCN(Cc2ccccc2)CC1` (centres unmarked) [Compound 3], which “positive binding in SPR (SNR>3)” value (MYCN G4 DNA [1]) is on record?
Answer: hits

Question: `CCOc1ccc(CNC(=O)c2cnc(N3CCSCC3)nc2N)cc1` [Compound 12] was tested. Which “positive binding in FIA (>10% quenching)” value (MYCN G4 DNA [2]) did it give?
Answer: hits

Question: How did the “positive binding in SPR (SNR>3)” value (MYCN G4 DNA [1]) turn out when `CCCNc1cc(N2CCCC(CCC(=O)N3CCN(c4ncccn4)CC3)C2)ncn1` (centres unmarked) [Compound 13] was run?
Answer: hits

Question: What does the source list for `COc1ccc(-c2noc(-c3ccc(NCCOCCNc4c5ccc(Cl)cc5nc5ccc(OC)cc45)nn3)n2)cc1` [B35, 6-chloro-2-methoxy-N-(2-(2-((6-(3-(4-methoxyphenyl)-1,2,4-oxadiazol-5-yl)pyridazin-3-yl)amino)ethoxy)ethyl)acridin-9-amine]?
Answer: Kd (MYCN hairpin-G4 DNA): 38 ± 5 nM; fold improvement of KD compared to B32 (MYCN hairpin-G4 DNA; FIA and SPR, MYCN HP-G4): > 10 fold; Kd (MYCN G4 DNA [1]; [5]): 14 ± 6 nM

Question: With `COCCNc1ccc(-c2nc(-c3ccc(OC)cc3)no2)nn1` [MY-3] as the molecule, how does the Kd (MYCN G4 DNA [1]; [4]) read?
Answer: 5900 ± 2700 nM

Question: And the Kd [3]?
Answer: 1200 ± 600 nM

Question: How did the “positive binding in FIA (>10% quenching)” value (MYCN G4 DNA [2]) turn out when `Cc1ccc(Nc2cc(C)nc(N3CCN(C(=O)CCc4ccccc4)CC3)n2)cc1` [Compound 10] was run?
Answer: hits

Question: Which Kd (MYCN G4 DNA [1]; [4]) does the source give for `COc1ccc(-c2noc(-c3ccc(NCCN4CCCC4)nn3)n2)cc1` [MY-12] here?
Answer: > 100000 nM

Question: `COc1ccc(-c2noc(-c3ccc(NCCN4CCOCC4)nn3)n2)cc1` [MY-13, 6-(3-(4-methoxyphenyl)-1,2,4-oxadiazol-5-yl)-N-(2-morpholinoethyl)pyridazin-3-amine] was tested. Which Kd (MYCN G4 DNA [1]; [4]) did it give?
Answer: 8200 ± 2400 nM

Question: And the Kd [3]?
Answer: 3200 ± 700 nM

Question: For `COc1ccc2c(c1)sc1nc(-c3ccc(OC)c(OC)c3)c(NC(C)(C)C)n12` [Compound 11], which “positive binding in FIA (>10% quenching)” value (MYCN G4 DNA [2]) is on record?
Answer: hits

Question: Which “positive binding in SPR (SNR>3)” value (MYCN G4 DNA [1]) does the source give for `Cc1c(C(=O)O)sc2ncnc(NCCCN3CCN(c4ccccc4)CC3)c12` [Compound 9] here?
Answer: hits

Question: What does the source list for `COc1ccc(-c2noc(-c3ccc(NCCOCCOCCNc4c5ccc(Cl)cc5nc5ccc(OC)cc45)nn3)n2)cc1` [B38, 6-chloro-2-methoxy-N-(2-(2-(2-((6-(3-(4-methoxyphenyl)-1,2,4-oxadiazol-5-yl)pyridazin-3-yl)amino)ethoxy)ethoxy)ethyl)acridin-9-amine]?
Answer: Kd (MYCN hairpin-G4 DNA): 69 ± 21 nM; Kd (MYCN G4 DNA [1]; [5]): 87 ± 39 nM

Question: Which results are given for `COc1ccc(-c2noc(-c3ccc(NCCCN(C)C)nn3)n2)cc1` [MY-11]?
Answer: Kd (MYCN G4 DNA [1]; [4]): 9200 ± 1900 nM; Kd [3]: 1200 ± 200 nM

Question: Which results are given for `COc1ccc(-c2noc(-c3ccc(NCCC(N)=O)nn3)n2)cc1` [MY-7]?
Answer: Kd (MYCN G4 DNA [1]; [4]): 23500 ± 4700 nM; Kd [3]: 13200 ± 4600 nM

From US20240287054A1, “COMPOUNDS THAT BIND NON-CANONICAL G-QUADRUPLEX STRUCTURES AND METHODS OF MAKING AND USING THE SAME” (The U.S.A., as Represented by the Secretary, Department of …, priority 2021, published 2024)
